{"source": "patent US20180296503A1", "about": "(priority 2014, published 2018)", "key": {"[1]": {"system": "rd10^+/+ mice", "experiment": "Scotopic, photopic and low background photopic electroretinograms (ERGs) in rd10+/+ mice given drug in drinking water", "assay_type": "in vivo", "conditions": "for mean peak scotopic ERG b-wave amplitude compared with controls: vs controls", "experimental": "Scotopic and photopic electroretinograms (ERGs) were recorded at P35. Scotopic, photopic and low background photopic ERGs were recorded at P50."}, "[2]": {"system": "rd10^+/+ mice", "experiment": "Cone density in PNA-stained retinal flat mounts of rd10+/+ mice at P50", "assay_type": "in vivo", "conditions": "for cone cell density compared to NAC-treated mice: P50, four quadrants"}, "[3]": {"molecular_target": "glutamate cysteine ligase (GCL, EC 6.3.2.2)", "conditions": "nonallosteric competitive inhibition of GCL; cited from earlier work"}, "[4]": {"conditions": "oral formulations; cited from earlier work"}, "[5]": {"conditions": "humans; oral dose of 600 mg; cited from earlier work"}, "[6]": {"conditions": "same oral dose or substantially lower dose than NAC, rd10+/+ mice"}}, "data": [{"smiles": "CC(=O)N[C@@H](CS)C(N)=O", "values": [{"measurement": "protecting retinal function (FIGS. 1A to 1E)", "setting": "[1]; 7 mg/ml NACA vs 7 mg/ml NAC", "result": "better effects"}, {"measurement": "protecting retinal function (FIGS. 3A to 3E)", "setting": "[1]; 7 mg/ml NACA vs 20 mg/ml NAC", "result": "better effects"}, {"measurement": "mean peak scotopic ERG b-wave amplitude compared with 20 mg/ml NAC", "setting": "[1]; P35, 7 mg/ml NACA vs 20 mg/ml NAC", "result": "similar"}, {"measurement": "mean peak photopic b-wave amplitude, higher than in NAC-treated mice", "setting": "[1]; P35, 7 mg/ml NACA vs 20 mg/ml NAC, p=0.024", "result": 41, "unit": "%"}, {"measurement": "mean scotopic b-wave amplitudes compared with NAC-treated mice", "setting": "[1]; P50, 7 mg/ml NACA vs 20 mg/ml NAC, at 10 of 11 stimulus intensities", "result": "significantly greater"}, {"measurement": "mean photopic ERG b-wave amplitude, higher than in NAC-treated mice", "setting": "[1]; P50, 7 mg/ml NACA vs 20 mg/ml NAC, at all 3 stimulus intensities, p=0.001", "result": 50, "unit": "%"}, {"measurement": "mean peak scotopic ERG b-wave amplitude compared with controls", "setting": "[1]; P50, 7 mg/ml NACA", "result": "sustained higher amplitudes"}, {"measurement": "preservation of cone cell function compared with NAC", "setting": "[1]; [6]", "result": "significantly greater preservation"}, {"measurement": "protecting cone cell survival (FIGS. 2A to 2M)", "setting": "[2]; 7 mg/ml NACA vs 7 mg/ml NAC", "result": "better effects"}, {"measurement": "protecting cone cell survival (FIGS. 4A to 4M)", "setting": "[2]; 7 mg/ml NACA vs 20 mg/ml NAC", "result": "better effect"}, {"measurement": "cone cell density compared to NAC-treated mice", "setting": "[2]; 7 mg/ml NACA vs 7 mg/ml NAC, p<0.0001 by ANOVA with Dunnett's correction", "result": "significantly greater in 3 of 4 quadrants"}, {"measurement": "cone cell density compared to NAC-treated mice", "setting": "[2]; 7 mg/ml NACA vs 20 mg/ml NAC", "result": "significantly greater in 2 of 4 quadrants"}, {"measurement": "preservation of cone survival compared with NAC", "setting": "[2]; [6]", "result": "significantly greater preservation"}]}, {"smiles": "N[C@@H](CCC(=O)N[C@@H](CS)C(=O)NCC(=O)O)C(=O)O", "note": "[GSH, c-L-glutamyl-L-cysteinyl-glycine]", "values": [{"measurement": "Ki", "setting": "[3]", "result": 2.3, "unit": "mM"}]}, {"smiles": "CC(=O)N[C@@H](CS)C(=O)O", "note": "[NAC, N-acetyl-L-cysteine]", "values": [{"measurement": "mean peak scotopic ERG b-wave amplitude compared with controls", "setting": "[1]; P50, 20 mg/ml NAC", "result": "sustained higher amplitudes"}, {"measurement": "systemic bioavailability", "setting": "[4]", "result": "< 10", "unit": "%"}, {"measurement": "time after administration at which no NAC is detectable", "setting": "[5]", "result": "10 to 12", "unit": "h"}]}]}
